The text below walks through data of patent publication US20220293224A1, “MODULAR SYNTHON-BASED SCREENING APPROACH FOR USE IN DRUG DISCOVERY FOR DISEASES” (priority 2021, published 2022).

Read-outs that look alike come from different tables or passages of the source. A value given as a limit tells only on which side of the number the result lay.

For one experiment, the target named is T1, rat CB1 receptor (Rattus norvegicus, UniProt P20272).
T1 construct: membrane preparations from rat brain; from tissue; host or cells: rat brain membranes
T1 sequence (P20272 whole entry): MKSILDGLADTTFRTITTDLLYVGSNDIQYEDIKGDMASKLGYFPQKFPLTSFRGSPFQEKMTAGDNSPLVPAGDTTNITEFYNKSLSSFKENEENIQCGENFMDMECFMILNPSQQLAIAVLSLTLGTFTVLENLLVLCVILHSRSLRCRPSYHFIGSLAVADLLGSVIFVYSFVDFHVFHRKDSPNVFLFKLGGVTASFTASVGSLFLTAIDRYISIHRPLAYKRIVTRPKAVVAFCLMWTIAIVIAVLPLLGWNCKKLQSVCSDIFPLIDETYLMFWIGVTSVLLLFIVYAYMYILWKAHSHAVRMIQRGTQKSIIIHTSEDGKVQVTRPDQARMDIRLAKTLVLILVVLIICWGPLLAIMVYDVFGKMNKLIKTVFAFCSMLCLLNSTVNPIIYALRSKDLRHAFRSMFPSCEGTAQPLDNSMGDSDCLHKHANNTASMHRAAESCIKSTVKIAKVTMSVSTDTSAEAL
Briefly: Radioligand binding assay with [3H]CP-55,940, rat brain membranes. On the procedure:
(§1) The affinities (IQ of the new compounds for rat CB1 receptor as well as for human CB2 receptors were obtained by using membrane preparations from rat brain or HEK293 cells expressing hCB2 receptors, respectively, and [^3H]CP-55,940 as the radioligand, as previously described. Results from the competition assays were analyzed using nonlinear regression to determine the IC50 values for the ligand; Ki values were calculated from the I50 (Prism by GraphPad Software, Inc.). Each experiment was performed in triplicate and Ki values determined from three independent experiments and are expressed as the mean of the three values.

Experiment [1] concerns the target T2, human CB2 (Homo sapiens, UniProt P34972). Briefly: Radioligand binding assay with [3H]CP-55,940, HEK293 cells expressing hCB2. Details: expressed in transfected cells; host or cells: HEK293 cells. On the procedure: as §1
Another experiment addresses T3, human CB1 (Homo sapiens, UniProt P21554).
T3 construct: expressed in transfected cells; host or cells: HTLA cells
The experiment is classed as cell-based. The conditions noted are these: read-out: CB1 Antagonist potency Ki. On the procedure: (§2) The Tango arrestin recruitment assays were performed as previously described. Briefly, HTLA cells were transiently transfected with human CB1 or CB2 Tango DNA construct overnight in DMEM supplemented with 10% FBS, 100 μg/ml streptomycin and 100 U/ml penicillin. The transfected cells were then plated into Poly-L-Lysine coated 384-well white clear bottom cell culture plates in DMEM containing 1% dialyzed FBS at a density of 10,000-15,000 cells/well. After 6 hours incubation, the plates were added with drug solutions prepared in DMEM containing 1% dialyzed FBS for overnight incubation. […] On the day of assay, medium and drug solutions were removed and 20 μL/well of BrightGlo reagent (Promega) was added. The plates were further incubated for 20 min at room temperature and counted using a Wallac TriLux Microbeta counter (PerkinElmer). Results were analyzed using GraphPad Prism 8.

For experiment [2], the target named is T2, human CB2. Put plainly: Tango β-arrestin recruitment antagonist assay at CB2. Type of experiment: cell-based. The arrangement: expressed in transfected cells; host or cells: HTLA cells. To be noted: Tango antagonist assay with 100 nM CP55940; n=4 independent assays, 16 dose-response points; read-out: CB2 Antagonist potency Ki. On the procedure: as §2
Experiment [3] relates to panel of more than 300 receptors. Put plainly: PRESTO-Tango GPCRome off-target panel. Type of experiment: cell-based. To be noted: for activities at off-targets in follow-up dose-response curves: follow-up dose-response of potential actives. How it is done: Screening of the compounds in the PRESTO-Tango GPCRome was performed as previously described with modifications. First, HTLA cells were plated in poly-L-lysine coated 384-well white plates in DMEM containing 1% dialyzed FBS for 6 hours. Next, the cells were transfected with 20 ng/well PRESTO-Tango receptor DNAs overnight. Then, the cells were added with 10 μM drugs without changing the medium and incubated for another 24 hours. The remaining steps of the PRESTO-Tango protocol were followed. The results were plotted as fold of basal against individual receptors in the GraphPad 8.0 software. For the receptors that had >3-fold of basal signaling activity, assays were repeated as a full dose-response assay and the results were plotted as a percentage of reference compounds.

The mark [4] stands for this setting: rat CB1, [3H]CP-55,940 radioligand, read-out: CB1 affinity Ki.
The mark [5] stands for this setting: human CB2, [3H]CP-55,940, estimates from 3-point assays, read-out: CB2 affinity Ki (asterisk: estimate from 3-point assays).
Setting [6] is: human CB2, [3H]CP-55,940 radioligand, read-out: CB2 affinity Ki.
The mark [7] stands for this setting: rat CB1, [3H]CP-55,940, estimates from 3-point assays, read-out: CB1 affinity Ki (asterisk: estimate from 3-point assays).

T3 sequence (P21554 whole entry): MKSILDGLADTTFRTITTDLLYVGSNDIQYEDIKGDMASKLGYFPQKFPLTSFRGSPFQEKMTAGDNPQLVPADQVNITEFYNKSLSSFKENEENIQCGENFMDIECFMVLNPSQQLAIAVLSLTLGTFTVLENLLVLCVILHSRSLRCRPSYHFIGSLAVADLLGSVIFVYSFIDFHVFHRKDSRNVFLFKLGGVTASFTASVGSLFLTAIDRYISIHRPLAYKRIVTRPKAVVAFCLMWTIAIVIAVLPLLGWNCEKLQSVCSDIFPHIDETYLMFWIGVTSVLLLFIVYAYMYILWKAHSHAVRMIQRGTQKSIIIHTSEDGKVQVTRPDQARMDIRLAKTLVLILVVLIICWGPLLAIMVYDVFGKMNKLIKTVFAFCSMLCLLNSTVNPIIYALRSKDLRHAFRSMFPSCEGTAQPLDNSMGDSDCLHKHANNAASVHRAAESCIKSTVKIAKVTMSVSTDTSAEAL
T2 sequence (P34972 whole entry): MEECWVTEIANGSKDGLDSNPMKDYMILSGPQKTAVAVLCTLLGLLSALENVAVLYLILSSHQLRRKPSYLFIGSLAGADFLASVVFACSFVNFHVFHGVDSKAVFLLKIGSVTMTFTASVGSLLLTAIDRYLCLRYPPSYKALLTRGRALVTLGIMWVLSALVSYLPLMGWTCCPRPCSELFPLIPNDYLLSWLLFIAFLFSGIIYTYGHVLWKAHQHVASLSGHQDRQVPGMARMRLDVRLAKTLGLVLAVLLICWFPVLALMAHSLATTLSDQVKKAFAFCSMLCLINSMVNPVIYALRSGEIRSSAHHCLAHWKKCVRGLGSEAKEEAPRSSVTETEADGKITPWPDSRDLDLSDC

`Cc1ccc(NC(=O)Nc2ccn(C3CCOCC3)n2)cc1S(=O)(=O)N1CCCCCC1` [BRI-13505]: the Ki at rat CB1 receptor (setting [4]) is 16.4 µM; at human CB2 [1] (setting [5]), 1 µM; on human CB1, 0.28 µM; at human CB2 [2] it was 0.54 µM.

`O=C1Cc2cc(NC(=O)C(=O)NC(CCc3ccccc3)c3ccccc3)ccc2N1` (stereo not drawn) [BRI-13515]: the Ki at rat CB1 receptor (setting [4]) was found to be 6.1 µM; at human CB2 [1] (setting [6]), 2.85 µM; at human CB1, 0.94 µM; on human CB2 [2], 3.81 µM.

On to `Cc1cc(Cl)cn2cc(CNC(=O)C(=O)NC(COc3ccccc3)c3ccccc3)nc12` (stereo not drawn) [BRI-13520], for which the Ki on rat CB1 receptor (setting [4]) turned out to be 11.6 µM; at human CB2 [1] (setting [6]), 12.8 µM; on human CB1 it was 1.07 µM; on human CB2 [2], 5.2 µM.

In the case of `C=CCC1(S(=O)(=O)NC(=O)c2ccc(N3CCCCC3)c(S(=O)(=O)N3CCCCCC3)c2)CC1` [BRI-13523], the Ki turned out to be 12 µM on rat CB1 receptor (setting [4]), 0.85 µM on human CB2 [1] (setting [6]), 1.82 µM on human CB1 and 1.59 µM on human CB2 [2]. Besides, the “activities at off-targets in follow-up dose-response curves” value in experiment [3] was “only negligible activities”. Further, in experiment [3] (panel of more than 300 receptors), the “selectivity against the GPCRome-Tango panel” value is “high selectivity”.

Regarding `Cc1ccc(NC(=O)Nc2ccn(C3CCCCCC3)n2)cc1S(=O)(=O)N1CCCCCC1` [BRI-13544], the figures for the Ki at human CB2 [1] (setting [5]) and at human CB2 [2] were 2.5 µM and 7.78 µM, respectively.

As to `CC1(C)NC(=O)N(CCCNC(=O)NCc2oc3ccc(Cl)cc3c2-c2ccccc2)C1=O` [BRI-13559], the Ki at human CB2 [1] (setting [6]) was found to be 12.2 µM; on human CB1, 0.98 µM; on human CB2 [2] it was 4.25 µM.

As for `COc1ccc(-c2nccc(N3CCCC(Cc4ccc(N)nc4)C3)n2)cc1` (stereo not drawn) [BRI-13565], the Ki at rat CB1 receptor (setting [7]) was 4.5 µM; at human CB2 [1] (setting [6]), 13.6 µM; on human CB2 [2], 3.77 µM.

On to `O=C(NCC1(Cc2ccccc2)CC=CCC1)C(=O)Nc1c(F)ccc(Br)c1F` (stereo not drawn) [BRI-13566], for which the Ki on rat CB1 receptor (setting [7]) was 6.9 µM; at human CB2 [1] (setting [6]) it was 1.2 µM; on human CB1, 2.05 µM; at human CB2 [2], 4.04 µM.

Take `Cn1ccc(-n2cc(-c3csc(C(NC(=O)c4ccccc4)c4ccccc4)n3)nn2)n1` (stereo not drawn) [BRI-13580]: the inhibition constant (Ki) on human CB2 [1] (setting [5]) was 1.5 µM; on human CB1 it was 5.8 µM; at human CB2 [2], 6.92 µM.

Regarding `Cc1ccc(NC(=O)N2CCC(O)(c3ccccc3F)C2)cc1S(=O)(=O)N1CCCCCC1` (stereo not drawn) [BRI-13599], the Ki is 26.5 µM at rat CB1 receptor (setting [7]), 10.4 µM on human CB2 [1] (setting [6]), 2.33 µM at human CB1 and 2.44 µM on human CB2 [2].

Turning to `O=C(Nc1ccn(C2CCCCC2)n1)C(=O)NC(CCc1ccccc1)c1ccccc1` (stereo not drawn) [BRI-13610], the Ki turned out to be 0.62 µM on rat CB1 receptor (setting [4]), 0.28 µM at human CB2 [1] (setting [6]), 0.76 µM on human CB1 and 4.17 µM on human CB2 [2]. In addition, in experiment [3], the “activities at off-targets in follow-up dose-response curves” value was “only negligible activities”.

Take `O=C1CCc2cc(OCCNC(=O)N(Cc3ccccc3)Cc3ccc(F)cc3)ccc2N1` [BRI-13619]: the Ki at rat CB1 receptor (setting [7]) is 45 µM; at human CB1, 0.05 µM; at human CB2 [2], 0.11 µM.

Turning to `N#Cc1ccc(C(=O)NCCN(Cc2ccccc2)C(=O)c2cc(C(F)(F)F)cs2)s1` [BRI-13633], the Ki was 10 µM on rat CB1 receptor (setting [7]), 0.23 µM at human CB1 and 1.53 µM on human CB2 [2].

In the case of `CS(C)(=O)=NS(=O)(=O)c1cccc(C(=O)OCc2cccc3ccsc23)c1` [BRI-13650], the Ki is 45 µM at rat CB1 receptor (setting [7]), 3.22 µM on human CB1 and 12.2 µM on human CB2 [2].

As for `O=S(=O)(NC1CC1)c1ccc(S(=O)(=O)NC(CCc2ccccc2)c2ccccn2)cc1` (stereo not drawn) [BRI-13661], the Ki is 19 µM on rat CB1 receptor (setting [7]), 4 µM on human CB2 [1] (setting [6]), 0.55 µM on human CB1 and 4.37 µM on human CB2 [2].

As to `O=C(C1CC1)N1CCc2ccc(S(=O)(=O)NC(CCc3ccccc3)c3ccccn3)cc21` (stereo not drawn) [BRI-13663], the Ki on rat CB1 receptor (setting [7]) is 12.5 µM; on human CB2 [1] (setting [6]), 14.3 µM; on human CB2 [2], 14.5 µM.

As for `O=C(c1ccc(F)cc1)c1cc(Cl)ccc1NS(=O)(=O)c1cnn(C2CCCCC2)c1` [BRI-13665], the Ki at rat CB1 receptor (setting [7]) is > 7 µM; at human CB2 [1] (setting [6]) it was 6.7 µM; on human CB1 it was 0.39 µM; at human CB2 [2], 0.82 µM.

Take `Cc1ccc(CN(Cc2ccco2)S(=O)(=O)c2cnn(-c3ccccc3F)c2)s1` [BRI-13668]: the Ki at human CB2 [1] (setting [6]) came to 5.2 µM; on human CB2 [2] it was 4.78 µM.

For the compound `CCCC(NS(=O)(=O)C1CC2(CC2)C1)C(=O)Nc1cccc(N2CCCC2)c1` (stereo not drawn) [BRI-13681], the Ki amounted to 8.2 µM at rat CB1 receptor (setting [4]), 4.2 µM on human CB2 [1] (setting [6]), 0.42 µM on human CB1 and 1.86 µM on human CB2 [2].

Turning to `O=S(=O)(C1=Cc2cc(Cl)ccc2OC1)N(CCc1ccccn1)Cc1cccnc1` [BRI-13684], the Ki on rat CB1 receptor (setting [4]) is 25.5 µM; at human CB2 [1] (setting [6]), 5.3 µM; on human CB1, 1.16 µM; at human CB2 [2] it was 7.28 µM.

A word on the Ki: it is the dissociation constant of the complex between target and ligand, obtained from inhibition or displacement.
